From patent publication US20040258773A1, “Composition and methods for treating subjects with hyperglycemia” (priority 2004, published 2004)

System: 3T3-L1 adipocytes
Test: Glucose uptake activity assay (2-deoxy-D-[3H]glucose uptake)
Type: cell-based
Conditions: 12-well plates, 15 min incubation, FIG. 1
Experimental: Glucose uptake activity assay. Glucose uptake activity was analyzed by measuring the uptake of 2-deoxy-D-[^3H] glucose as described previously (Sakoda, H, et al. (1999) Diabetes 48: 1365-1371; Garcia de Herreros, A. & Birnbaum, M. J. (1989) J. Biol. Chem. 264: 19994-19999). Briefly, confluent 3T3-L1 adipocytes grown in 12-well plates were washed twice with serum-free DMEM and incubated with 1 mL of the same medium at 37° C. for 2 h. The cells were washed 3 times with Krebs-Ringer-Hepes (KRP) buffer and incubated with 0.9 mL KRP buffer at 37° C. for 30 min. Insulin and/or BE were then added and adipocytes were incubated at 37° C. for 15 min. Glucose uptake was initiated by the addition of 0.1 ml, KRP buffer and 3.7×10^7 Bq/L 2-deoxy-D-[^3H] glucose and 1 mmol/L glucose as final concentrations. After 10 min, glucose uptake was terminated by washing the cells 3 times with cold PBS. The cells were lysed with 0.7 mL of 1% Triton X-100 at 37° C. for 20 min. The radioactivity retained by the cell lysates was determined by a scintillation counter. Nonspecific glucose uptake was measured at a glucose concentration of 100 mmol/L. Assay data were statistically analyzed using the paired Student's t-test, with P<0.05 set as the significant difference level.

Q: Which “stimulation of glucose uptake in 3T3-L1 adipocytes” value does the source give for “insulin: Bovine insulin from Sigma Chemical, positive control” here?
A: could stimulate glucose uptake
